The source made the active and inactive calls. The calls are words filed in the database; no cut-off is given here.
Legend:
[1] = target: Sphingosine 1-phosphate receptor 1 (Homo sapiens, UniProt P21453); experiment: Agonist activity at S1P1 receptor (unknown origin) expressed in CHO cells incubated for 2 hrs by HTRF-IP1 assay; assay type: cell-based
[2] = target: Sphingosine 1-phosphate receptor 3 (Homo sapiens, UniProt Q99500); experiment: Agonist activity at S1P3 receptor (unknown origin) expressed in CHO cells incubated for 2 hrs by HTRF-IP1 assay; assay type: cell-based
Sphingosine 1-phosphate receptor 3, sequence (Q99500 whole entry): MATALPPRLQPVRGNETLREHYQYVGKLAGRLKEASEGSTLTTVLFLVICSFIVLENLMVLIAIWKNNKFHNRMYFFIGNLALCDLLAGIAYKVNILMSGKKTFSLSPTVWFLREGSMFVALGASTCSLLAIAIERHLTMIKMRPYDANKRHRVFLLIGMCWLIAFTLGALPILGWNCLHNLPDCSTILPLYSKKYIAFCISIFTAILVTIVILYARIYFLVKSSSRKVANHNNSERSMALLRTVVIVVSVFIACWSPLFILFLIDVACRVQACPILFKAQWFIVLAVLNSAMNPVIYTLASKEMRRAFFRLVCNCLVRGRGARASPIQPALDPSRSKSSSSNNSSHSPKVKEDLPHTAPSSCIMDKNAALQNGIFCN

Homo sapiens = species: Homo sapiens; experiment: Selectivity ratio of EC50 for S1P3 receptor (unknown origin) to EC50 for S1P1 receptor (unknown origin)
Blood [3] = experiment: Drug level in Sprague-Dawley rat blood assessed as compound formation treated with SYL930 at 3 mg/kg, po measured at 0.08 to 48 hrs by LC-MS/MS analysis; assay type: ADME, organism-based; conditions: in vivo
Rattus norvegicus = experiment: Lymphopenia activity in Sprague-Dawley rat assessed as decrease in lymphocytes in peripheral blood at 3 mg/kg, po after 24 hrs by hematology analyzer; assay type: functional, organism-based
Blood [4] = experiment: Retention time of compound in Sprague-Dawley rat blood treated with SYL930 at 3 mg/kg, po by LC-MS/MS analysis; assay type: ADME, organism-based; conditions: in vivo
Blood [5] = experiment: Drug metabolism in Sprague-Dawley rat blood assessed as formation of 2-amino-2-(2-(4'-(2-(1-hydroxyethyl)oxazol-4-yl)biphenyl-4-yl)ethyl)propane-1,3-diol hydrochloride at 3 mg/kg, po measured at 0.08 to 48 hrs by LC-MS/MS analysis; assay type: ADME, organism-based; conditions: in vivo
Blood [6] = experiment: Drug level in Sprague-Dawley rat blood assessed as compound formation treated with SYL927 at 3 mg/kg, po measured at 0.08 to 48 hrs by LC-MS/MS analysis; assay type: ADME, organism-based; conditions: in vivo
Blood [7] = experiment: Retention time of compound in Sprague-Dawley rat blood treated with SYL927 at 3 mg/kg, po by LC-MS/MS analysis; assay type: ADME, organism-based; conditions: in vivo
Blood [8] = experiment: Drug metabolism in Sprague-Dawley rat blood assessed as formation of 2-amino-2-(2-(4'-(2-(2-hydroxypropyl)oxazol-4-yl)biphenyl-4-yl)ethyl)propane-1,3-diol hydrochloride at 3 mg/kg, po measured at 0.08 to 48 hrs by LC-MS/MS analysis; assay type: ADME, organism-based; conditions: in vivo

Sphingosine 1-phosphate receptor 1, sequence (P21453 whole entry): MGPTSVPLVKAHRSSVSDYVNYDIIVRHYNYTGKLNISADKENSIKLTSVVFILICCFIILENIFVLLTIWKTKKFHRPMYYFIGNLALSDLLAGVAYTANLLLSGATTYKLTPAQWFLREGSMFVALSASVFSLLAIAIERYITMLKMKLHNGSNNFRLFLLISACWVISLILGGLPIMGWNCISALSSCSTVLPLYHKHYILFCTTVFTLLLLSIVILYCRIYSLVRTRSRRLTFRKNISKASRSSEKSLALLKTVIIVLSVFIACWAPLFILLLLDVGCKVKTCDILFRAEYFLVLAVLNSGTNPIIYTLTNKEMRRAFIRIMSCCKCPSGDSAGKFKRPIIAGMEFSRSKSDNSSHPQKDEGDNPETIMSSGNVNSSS

| Structure (SMILES) | EC50 [1] [nM] | EC50 [2] [nM] | Ratio EC50 (Homo sapiens) | Drug metabolism (Blood [3]) | Activity (Rattus norvegicus) | Retention_time (Blood [4]) [min] | Drug metabolism (Blood [5]) | Drug metabolism (Blood [6]) | Retention_time (Blood [7]) [min] | Drug metabolism (Blood [8]) |
| --- | --- | --- | --- | --- | --- | --- | --- | --- | --- | --- |
| CCCc1nc(-c2ccc(-c3ccc(CCC(N)(CO)COP(=O)(O)O)cc3)cc2)co1 (stereo unspecified) | 13.3 | 484 | 36 | – | – | – | – | – | – | – |
| CCc1nc(-c2ccc(-c3ccc(CCC(N)(CO)COP(=O)(O)O)cc3)cc2)co1 (stereo unspecified) | 7 | 1060 | 151 | – | – | – | – | – | – | – |
| CC(O)Cc1nc(-c2ccc(-c3ccc(CCC(N)(CO)CO)cc3)cc2)co1.Cl (stereo unspecified) | 1520 | > 10000 | > 6 | metabolite_detected | Active | 13 | – | – | – | – |
| CCc1nc(-c2ccc(-c3ccc(CCC(N)(CO)CO)cc3)cc2)co1.Cl | > 10000 | > 10000 | – | – | Active | – | metabolite_detected | – | – | – |
| CC(O)c1nc(-c2ccc(-c3ccc(CCC(N)(CO)CO)cc3)cc2)co1.Cl (stereo unspecified) | > 10000 | > 10000 | – | – | Active | – | – | metabolite_detected | 6.6 | – |
| CCCc1nc(-c2ccc(-c3ccc(CCC(N)(CO)CO)cc3)cc2)co1.Cl | 1610 | > 10000 | > 6 | – | Active | – | – | – | – | metabolite_detected |

Source: ChEMBL document CHEMBL3779869, “Synthesis, identification, and biological activity of metabolites of two novel selective S1P1 agonists” (Bioorg Med Chem, 2016)
